Data: patent US20220071971A1, “MACROCYCLIC COMPOUNDS AND THEIR USE IN THE TREATMENT OF DISEASE” (NOVARTIS AG, priority 2018, published 2022)

Molecular target: T1, delF508-CFTR (Homo sapiens, UniProt P13569, DEL508-508)
T1 construct: expressed in transfected cells
Assay: Measurement of delF508-CFTR-HRP surface expression in CFBE41o- cells
Format: cell-based
Conditions: for EC50: HRP-tagged delF508-CFTR surface expression, CFBE41o- cells, 24 h with compound, 10-point curve, highest concentration 10 μM; for DelF508-CFTR-HRP Amax % / Emax: efficacy relative to reference compound 3-(6-(1-(2,2-difluorobenzo[d][1,3]dioxol-5-yl)cyclopropane-1-carboxamido)-3-methylpyridin-2-yl)benzoic acid; for Emax: CFBE41o-, read-out: DelF508-CFTR-HRP Amax %
Excerpt: Measurement of deIF508-CFTR-HRP Surface Expression in CFBE41o-Cells
This assay quantifies the cell surface expressions of the mutant CFTR channel using an extracellular HRP tag.
A cellular assay was developed to measure surface expression of horseradish peroxidase (HRP) tagged delF508-CFTR in the human bronchial epithelial immortalized CFBE41o-cell line (Phuan, P. W., et al, (2014) Molecular Pharmacology 86:42-51). Specifically, the HRP sequence was inserted into the fourth extracellular loop of delF508-CFTR and stably expressed in CFBE41o-cells. Cells were seeded in 384 well plate at a density of 5000 cells/well and incubated at 37° C. for 12 to 24 hours in medium (Gibco MEM #11095, 10% FBS, 10 mM HEPES, […], 200 μg/mL G418, 3 μg/mL Puromycin). The delF508-CFTR-HRP expression was induced with 500 ng/mL doxycycline (Sigma D-9891, dissolved in H2O and sterile filtered) in medium and the cells were incubated at 37° C. for 48 h. Old medium was removed and fresh medium was added containing 500 ng/mL doxycycline and unknown test compound at required test concentration in DMSO, not exceeding 0.5% final DMSO concentration. The highest concentration tested was 10 μM with a 10-point concentration response curve using a 3-fold dilution. After addition of compounds, the cells were incubated for 24 h at 37° C. On the final day, cells were washed four times in PBS containing 1 mM MgCl2 and 0.1 mM CaCl2. HRP-Substrate (SuperSignal ELISA Pico, Fisher #37069) 20 μl/well was added and the luminescence signal was determined (Viewlux, Perkin Elmer). Light was emitted upon addition of exogenous HRP-Substrate only when delF508-CFTR-HRP reached the cell surface and the HRP tag was accessible to the HRP-Substrate (note: HRP-Substrate cannot cross the lipid bilayer to reach delF508-CFTR-HRP misfolded within the cell).
The median activity for the lowest concentration of the compounds on each assay plate was calculated and this value was used to normalize the signal for each well on the respective plate. Three replicates at each concentrations for every compound were run to determine one EC50. The median value was determined and used to calculate compound activities as described below. Effective half maximal values (EC50) were calculated for each compound by performing logistic regression on measured dose-response data points using the equation: […]
where “Y” is the observed activity, “Bottom” is the lowest observed value, “Top” is the highest observed value, and the “Hill coefficient” gives the largest absolute value of the slope. The curve fitting is carried out by a curve fitting program implemented at GNF using Matlab (Mathworks).
The dose response curves also were used to calculate Fold Change (FC) using the equation: […]
Compound efficacy relative to the reference compound 3-(6-(1-(2,2-difluorobenzo[d][1,3]dioxol-5-yl)cyclopropane-1-carboxamido)-3-methylpyridin-2-yl)benzoic acid was determined using the following formula: […]

T1 sequence (P13569 with tags, fused parts or gaps DEL508-508): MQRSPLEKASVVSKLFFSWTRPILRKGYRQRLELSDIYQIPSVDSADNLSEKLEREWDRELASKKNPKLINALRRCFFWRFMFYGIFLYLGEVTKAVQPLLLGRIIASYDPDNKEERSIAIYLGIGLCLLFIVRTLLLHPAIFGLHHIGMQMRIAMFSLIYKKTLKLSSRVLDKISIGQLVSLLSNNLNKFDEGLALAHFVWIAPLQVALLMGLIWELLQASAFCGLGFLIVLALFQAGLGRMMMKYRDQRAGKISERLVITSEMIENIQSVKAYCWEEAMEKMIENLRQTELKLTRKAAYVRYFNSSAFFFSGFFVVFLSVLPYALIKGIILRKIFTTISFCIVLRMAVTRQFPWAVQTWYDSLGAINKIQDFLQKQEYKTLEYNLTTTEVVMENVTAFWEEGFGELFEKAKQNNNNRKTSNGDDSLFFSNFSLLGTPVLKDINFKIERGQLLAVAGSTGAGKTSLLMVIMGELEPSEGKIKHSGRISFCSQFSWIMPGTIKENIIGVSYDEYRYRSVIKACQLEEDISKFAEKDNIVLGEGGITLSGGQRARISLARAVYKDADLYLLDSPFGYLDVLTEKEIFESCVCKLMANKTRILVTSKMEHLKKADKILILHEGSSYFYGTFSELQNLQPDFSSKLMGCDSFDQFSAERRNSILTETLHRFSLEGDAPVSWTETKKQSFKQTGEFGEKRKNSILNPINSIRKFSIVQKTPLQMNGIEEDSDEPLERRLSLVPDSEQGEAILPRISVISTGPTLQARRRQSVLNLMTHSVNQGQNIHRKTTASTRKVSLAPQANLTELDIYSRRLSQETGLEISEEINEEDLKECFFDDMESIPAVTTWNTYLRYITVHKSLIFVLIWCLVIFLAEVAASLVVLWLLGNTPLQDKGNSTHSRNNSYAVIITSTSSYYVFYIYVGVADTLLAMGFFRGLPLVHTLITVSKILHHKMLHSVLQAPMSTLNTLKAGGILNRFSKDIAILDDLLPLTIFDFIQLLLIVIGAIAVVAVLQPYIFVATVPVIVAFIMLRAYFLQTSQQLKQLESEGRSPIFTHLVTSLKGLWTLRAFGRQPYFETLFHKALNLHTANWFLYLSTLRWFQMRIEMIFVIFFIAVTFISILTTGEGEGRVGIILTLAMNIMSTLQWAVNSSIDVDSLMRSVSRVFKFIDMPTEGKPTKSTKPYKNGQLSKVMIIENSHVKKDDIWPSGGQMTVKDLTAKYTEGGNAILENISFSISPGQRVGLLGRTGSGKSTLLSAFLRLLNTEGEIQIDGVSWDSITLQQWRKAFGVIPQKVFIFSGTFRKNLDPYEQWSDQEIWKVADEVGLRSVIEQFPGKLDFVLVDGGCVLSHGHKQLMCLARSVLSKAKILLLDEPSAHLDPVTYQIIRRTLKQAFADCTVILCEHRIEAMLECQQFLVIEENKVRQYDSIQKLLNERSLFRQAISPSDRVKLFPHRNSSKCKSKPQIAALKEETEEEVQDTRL

| Compound | EC50 | DelF508-CFTR-HRP Amax % | Emax |
| --- | --- | --- | --- |
| 6-(3-hydroxypropyl)-2^3-(trifluoromethyl)-9-oxa-4-thia-3,6-diaza-2,5(2,6)-dipyridina-1(1,2)-benzenacyclododecaphane 4,4-dioxide [Compound 30] | 1.48 µM | 1656.8% | – |
| 8-hydroxy-2^3-(trifluoromethyl)-4-thia-3,6-diaza-2,5(2,6)-dipyridina-1(1,2)-benzenacycloundecaphane 4,4-dioxide [Compound 38] | 1.41 µM | 224.1% | – |
| O=S1(=O)Nc2ccc(C(F)(F)F)c(n2)-c2ccccc2OCCCCNc2cccc1n2 [Compound 1, 2^3-(trifluoromethyl)-11-oxa-4-thia-3,6-diaza-2,5(2,6)-dipyridina-1(1,2)-benzenacycloundecaphane 4,4-dioxide] | 0.978 µM | – | 372% |
| O=S1(=O)Nc2ccc(C(F)(F)F)c(n2)-c2ccccc2OCCCCN(CCO)c2cccc1n2 [Compound 2, 6-(2-hydroxyethyl)-2^3-(trifluoromethyl)-11-oxa-4-thia-3,6-diaza-2,5(2,6)-dipyridina-1(1,2)-benzenacycloundecaphane 4,4-dioxide] | 0.606 µM | – | 610% |
| CCOC(=O)CN1CCCCOc2ccccc2-c2nc(ccc2C(F)(F)F)NS(=O)(=O)c2cccc1n2 [Compound 3, ethyl 2-(4,4-dioxido-2^3-(trifluoromethyl)-11-oxa-4-thia-3,6-diaza-2,5(2,6)-dipyridina-1(1,2)-benzenacycloundecaphane-6-yl)acetate] | 0.335 µM | – | 361% |
| O=C(O)CN1CCCCOc2ccccc2-c2nc(ccc2C(F)(F)F)NS(=O)(=O)c2cccc1n2 [Compound 4, 2-(4,4-dioxido-2^3-(trifluoromethyl)-11-oxa-4-thia-3,6-diaza-2,5(2,6)-dipyridina-1(1,2)-benzenacycloundecaphane-6-yl)acetic acid] | 2.87 µM | – | 74.4% |
| O=S1(=O)Nc2ccc(C(F)(F)F)c(n2)-c2cccnc2NCCCCNc2cccc1n2 [Compound 5, 2^3-(trifluoromethyl)-4-thia-3,6,11-triaza-1(3,2),2,5(2,6)-tripyridinacycloundecaphane 4,4-dioxide] | 1.62 µM | – | 159% |
| O=S1(=O)Nc2ccc(C(F)(F)F)c(n2)-c2cccnc2NCCCCCNc2cccc1n2 [Compound 6, 2^3-(trifluoromethyl)-4-thia-3,6,12-triaza-1(3,2),2,5(2,6)-tripyridinacyclododecaphane 4,4-dioxide] | 1.68 µM | – | 248% |
| O=S1(=O)Nc2ccc(C(F)(F)F)c(n2)-c2cccnc2NCCCCCCNc2cccc1n2 [Compound 7, 2^3-(trifluoromethyl)-4-thia-3,6,13-triaza-1(3,2),2,5(2,6)-tripyridinacyclotridecaphane 4,4-dioxide] | 0.977 µM | – | 386% |
| CN1CCCCCCN(C)c2ncccc2-c2nc(ccc2C(F)(F)F)NS(=O)(=O)c2cccc1n2 [Compound 8, 6,13-dimethyl-2^3-(trifluoromethyl)-4-thia-3,6,13-triaza-1(3,2),2,5(2,6)-tripyridinacyclotridecaphane 4,4-dioxide] | 0.41 µM | – | 564% |
| CN1CCCN(C)c2ncccc2-c2nc(ccc2C(F)(F)F)NS(=O)(=O)c2cccc1n2 [Compound 9, 6,10-dimethyl-2^3-(trifluoromethyl)-4-thia-3,6,10-triaza-1(3,2),2,5(2,6)-tripyridinacyclodecaphane 4,4-dioxide] | 1.71 µM | – | 367% |
| O=S1(=O)Nc2ccc(C(F)(F)F)c(n2)-c2cccnc2NCCCNc2cccc1n2 [Compound 10, 2^3-(trifluoromethyl)-4-thia-3,6,10-triaza-1(3,2),2,5(2,6)-tripyridinacyclodecaphane 4,4-dioxide] | 2.8 µM | – | 29% |
| O=S1(=O)Nc2ccc(C(F)(F)F)c(n2)-c2ccccc2COCCCNc2cccc1n2 [Compound 11, 2^3-(trifluoromethyl)-10-oxa-4-thia-3,6-diaza-2,5(2,6)-dipyridina-1(1,2)-benzenacycloundecaphane 4,4-dioxide] | 1.36 µM | – | 442% |
| O=S1(=O)Nc2ccc(C(F)(F)F)c(n2)-c2ccccc2CCCCCCN(CCCCCO)c2cccc1n2 [Compound 12, 6-(5-hydroxypentyl)-2^3-(trifluoromethyl)-4-thia-3,6-diaza-2,5(2,6)-dipyridina-1(1,2)-benzenacyclododecaphane 4,4-dioxide] | 0.236 µM | – | – |
| O=S1(=O)Nc2ccc(C(F)(F)F)c(n2)-c2ccccc2CCCCCN(CCN2CCOCC2)c2cccc1n2 [Compound 13, 6-(2-morpholinoethyl)-2^3-(trifluoromethyl)-4-thia-3,6-diaza-2,5(2,6)-dipyridina-1(1,2)-benzenacycloundecaphane 4,4-dioxide] | 0.393 µM | – | 601% |
| O=S1(=O)Nc2ccc(C(F)(F)F)c(n2)-c2ccccc2CCCCCN(CCOCCCO)c2cccc1n2 [Compound 14, 6-(2-(3-hydroxypropoxy)ethyl)-2^3-(trifluoromethyl)-4-thia-3,6-diaza-2,5(2,6)-dipyridina-1(1,2)-benzenacycloundecaphane 4,4-dioxide] | 0.334 µM | – | 489% |
| O=S1(=O)Nc2ccc(C(F)(F)F)c(n2)-c2ccccc2CCCCCN(CCCCCO)c2cccc1n2 [Compound 15, 6-(5-hydroxypentyl)-2^3-(trifluoromethyl)-4-thia-3,6-diaza-2,5(2,6)-dipyridina-1(1,2)-benzenacycloundecaphane 4,4-dioxide] | 0.304 µM | – | 708% |
| O=S1(=O)Nc2ccc(C(F)(F)F)c(n2)-c2ccccc2CCCCCCN(CCCCO)c2cccc1n2 [Compound 16, 6-(4-hydroxybutyl)-2^3-(trifluoromethyl)-4-thia-3,6-diaza-2,5(2,6)-dipyridina-1(1,2)-benzenacyclododecaphane 4,4-dioxide] | 0.303 µM | – | – |
| COc1ccc2nc1-c1ccccc1CCCCCN(CCCCO)c1cccc(n1)S(=O)(=O)N2 [Compound 17, 6-(4-hydroxybutyl)-2^3-methoxy-4-thia-3,6-diaza-2,5(2,6)-dipyridina-1(1,2)-benzenacycloundecaphane 4,4-dioxide] | 2.34 µM | – | 347% |
| CCN1CCCCCc2ccccc2-c2nc(ccc2C(F)(F)F)NS(=O)(=O)c2cccc1n2 [Compound 18, 6-ethyl-2^3-(trifluoromethyl)-4-thia-3,6-diaza-2,5(2,6)-dipyridina-1(1,2)-benzenacycloundecaphane 4,4-dioxide] | 0.645 µM | – | 802% |
| Cc1ccc2nc1-c1ccccc1CCCCCN(CCCCO)c1cccc(n1)S(=O)(=O)N2 [Compound 19, 6-(4-hydroxybutyl)-2^3-methyl-4-thia-3,6-diaza-2,5(2,6)-dipyridina-1(1,2)-benzenacycloundecaphane 4,4-dioxide] | 1.62 µM | – | 490% |
| O=S1(=O)Nc2ccc(C(F)(F)F)c(n2)-c2ccccc2CCCCN(CCCO)c2cccc1n2 [Compound 20, 6-(3-hydroxypropyl)-2^3-(trifluoromethyl)-4-thia-3,6-diaza-2,5(2,6)-dipyridina-1(1,2)-benzenacyclodecaphane 4,4-dioxide] | 0.36 µM | – | 337% |
| O=S1(=O)Nc2ccc(C(F)(F)F)c(n2)-c2ccccc2CCCCCCN(CCCO)c2cccc1n2 [Compound 21, 6-(3-hydroxypropyl)-2^3-(trifluoromethyl)-4-thia-3,6-diaza-2,5(2,6)-dipyridina-1(1,2)-benzenacyclododecaphane 4,4-dioxide] | 0.179 µM | – | 941% |
| O=S1(=O)Nc2ccc(C(F)(F)F)c(n2)-c2cc(F)ccc2OCCCCN(CCCO)c2cccc1n2 [Compound 22, 1^5-fluoro-6-(3-hydroxypropyl)-2^3-(trifluoromethyl)-11-oxa-4-thia-3,6-diaza-2,5(2,6)-dipyridina-1(1,2)-benzenacycloundecaphane 4,4-dioxide] | 0.603 µM | – | 666% |
